Experimental data taken from patent US20240018105A1, “TROPOLONE DERIVATIVES AND TAUTOMERS THEREOF FOR IRON REGULATION IN ANIMALS” (Kinesid Therapeutics, Inc., priority 2019, published 2024).

Key:
[1] = Ligand facilitated Fe(III) efflux from liposomes; conditions: 10 uM ligand concentration
Experimental: Assay 1: Ligand Facilitated Fe(III) Efflux from Liposomes Preparation of POPC (1-palmitoyl-2-oleoyl-sn-glycero-3-phosphocholine): Cholesterol Liposomes:
A 1M buffer solution of MES and Tris was prepared by dissolving 121.14 grams of Tris base and 213.25 grams of MES hydrate in 500 mL of MilliQ water and adjusted to pH7.0 using an […] HCl solution before bringing the total volume of the solution to 1 L. A 500 mM solution of FeCl3 was prepared by dissolving 0.811 grams of anhydrous FeCl3 in 10 mL of a 0.1M H2SO4 aqueous solution. Inside buffer is prepared in a 50 mL falcon tube, which was added with 25 mL of MilliQ water, 1.61 g of sodium citrate, 1.5 mL of the above FeCl3 solution, and 2.5 mL of the 1M MES/Tris HCl buffer (pH=7.0), and finally additional MilliQ H2O to bring to a 50 mL final volume.
Lipid solution is prepared by dissolving 206.9 mg of POPC (1-palmitoyl-2-oleoyl-sn-glycero-3-phosphocholine) and 8.6 mg of cholesterol in 10 mL of ethanol.
The lipids solution and the inside buffer solution are independently loaded into 10 mL luer lock syringes for loading into a virgin cartridge on a Precision Nanosystems NanoAssembler to prepare unilamaller liposomes with the following parameters: 7.5 mL total volume, 1.5:1 mixing ratio of inside buffer:lipids solution, 8 mL/min flow rate, ambient temperature, 0.35 mL start waste, and 0.05 mL of end waste. 7.5 mL of liposomes is harvested for purification on a 6-inch long, 1-inch diameter Sephadex G-50 column wetted in 600 mM sodium ascorbate and 50 mM MES/Tris HCl pH 7.0 buffer. This buffer also serves as the column running buffer. The crude liposome solution is carefully loaded with minimal volume of running buffer above the top of the Sphadex, allowed to enter the matrix, and the column is run with the continued addition of running buffer. The eluting liposomes, observed as a milky and turbid solution, are collected until free iron begins to elute (observed as a deep purple color) and the fractions are pooled for phosphorus quantitation.
Phosphorus content of eluted liposomes was determined by the process outlined below. 10 uL of liposome elution and a running buffer blank are added to a 5 mL glass vial containing 450 uL of a 8.9 M aqueous H2SO4 solution, the mixture is heated to 225° C. for 25 minutes in an aluminum heat block to hydrolyze POPC and cooled for 5 minutes. 200 ul of a 30% hydrogen peroxide aqueous solution is added to each vial and heated to 225° C. for 25 minutes. After cooling, the phosphorus content was determined using an Abcam Phosphate Assay kit, with buffer subtracted phosphorus levels determined against a standard curve of phosphate included in the kit. Liposomes were diluted to 1 mM phosphate in Running Buffer for use in assays after accounting for dilutions made during phospholipid digestion.
Determination of the rate at which a small molecule ligand liberates (transport) Ferric iron from liposomes is performed in clear bottom black 384-well plates on a Spectramax i3x set to read the absorbance at 562 nm in the kinetic mode every 60 seconds for 120 minutes. 1 uL of serially diluted DMSO stock solution of a small molecule ligand is added to wells in triplicate to give the final concentrations of 40, 20, 10, 5, 2.5, and 1.25 uM of the ligand at 80 μL final volume, followed by addition of 1 μL of 100 mM Ferrozine in water to give a final concentration of 1 mM ferrozine. 78 uL of liposomes diluted to 1 mM phosphorus in running buffer is added to wells as quickly as possible (using a digital repeater mulchannel pipette) with the kinetic read initiated as rapidly as possible after addition of liposomes to all wells. Typically, eight compounds at six concentrations are tested in triplicate simultaneously.
Upon completion of kinetic read, the data for individual reads is fitted to a single phase association regression with the equation Y=(Y0−YMax)^(−kX)+YMax, with Y being the 562 absorbance value and X being time in minutes. […]

[2] = system: DMT1-deficient Caco-2 cells; test: shDMT1-Caco2 55Fe transport assay; assay type: cell-based; conditions: Caco-2
Excerpt: Assay 2: shDMT1-Caco2 ^55Fe Transport Assay to Assess Ligand Ability in Transporting Fe (III)
Cells: DMT1-deficient Caco-2 cells (alias: “shDMT1,” or “4A” cells) were from Grillo et al. Science, 2017, and were cryopreserved in liquid nitrogen prior to use.
Reagents and supplies: ^55FeCl3 was obtained from PerkinElmer (Boston, MA). Iron(III) chloride (FeCl3) hexahydrate was obtained from Sigma. Dulbecco's Modified Eagle Medium (DMEM), fetal bovine serum (FBS), L-glutamine, MEM nonessential amino acids, penicillin-streptomycin, G418, formic acid, methanol, high-purity water, ammonium formate, dimethyl sulfoxide (DMSO) were purchased from Fisher Scientific. Propranolol, atenolol and carbutamide were obtained from Sigma-Aldrich Chemical Company (St Louis, MO). Scintillation cocktail was obtained from Research Product International Co. (Mount Prospect, IL). Stericup filter system (PES membrane, 0.22 um pore size) was purchased from Fisher Scientific. Coming item #3378 24-well transwell insert plates. Test articles: known compounds hinokitiol and deferiprone were purchased from Sigma. They are tested side by side with the small molecule ligands disclosed in this application. DMSO stocks (10 mM, which is 1,000× of the 10 μM dose level) of hinokitiol or test articles were prepared. A stock solution of 25 mM deferiprone in DMSO was prepared. The DMSO stock solutions were stored at −20° C. or below when not in use.
The growth medium was prepared according to the following table
Apical media (serum free DMEM, 10 mM MES, pH 6.5) was prepared. Apical master mix media was prepared fresh with the addition of 200 nM ^55Fe before each experiment. For the negative control propranolol and atenolol wells, 200 nM of non-radioactive iron was used.
The basolateral media was serum-free DMEM, 10 mM HEPES, 2% bovine serum albumin (BSA), pH 7.4.
For each experiment, cells were seeded into the 24-well transwell plates (0.5 mL of 50,000 cells/mL) with growth media. The basolateral companion plate was loaded with 1 mL of growth media. After 12-24 hr, both the apical and basolateral chamber were replaced with growth media. The apical media was changed 3× per week for 21-28 days, including a media change exactly 48 hr before the assay date.
On the assay day, the TEER values were measured and the average TEER values was obtained. Individual wells with TEER vaule >35% lower than the average of all wells were excluded. For the qualified wells, the apical layer (twice) and basolaterial (once) chambers were washed with PBS. The basolateral companion plate was then filled with 1 mL of basolateral media. Via addition down the side-wall of the apical well, 300 μL per well of the apical assay master mix, with the indicated dose level of test article, was added. Each dose was tested in triplicate. The plates were incubated (5% CO2 and 90% humidity at 37° C.) for the indicated timepoints. At each indicated timepoint, the basolateral supernatant was gently mixed via pipetting, and 200 μL of the basolateral supernatant was transferred to scintillation vials. To each scintillation counting vial, 5 mL of scintillation cocktail fluid was added. For each scintillation vial, the radioactivity (CPM) was determined with liquid scintillation counter LS6500. The counting time per vial was 5 min.
All raw CPM values are divided by the average value of blank DMSO solution to give a fold of change above the DMSO value. The mean and standard deviation of each compound at each concentration level and at each time point measured was calculated to give the fold change (fc) value.
For rank order compounds, the fc value of a ligand at 4 h time point is further divided by the fold change (fc) value of hinokitiol (a positive control compound) at an equimolar concentration to arrive at the FC (normalized fold of change) value. Data reported in Tables 1 and 2 is 4 hr time point FC=fc-ligand @ 3 uM/fc-hino @ 3 uM, and FC hino=1.

Mouse 6-hour PK study = conditions: in vivo
Excerpt: Compounds of the present disclosure were further evaluated in standard in vitro and in vivo Absorption, Distribution, Metabolism, Excretion (ADME) and Drug Metabolism and Pharmacokinetics (DMPK) assays to assess drug profiles important for further drug development.
Such assessments included human and mouse liver microsomal stability assays as well as 6-hour mouse PK studies.

Caco2 shDMT1 transport FC @ 3 μM, 4h [2]	Structure (SMILES)	Liposome Fe transport kefflux at 10 10 μM ([1]; Table 1)	also measured
0.01-0.5	O=c1cccc(-c2cnc(N3CCOCC3)nc2)cc1O [Ex.42, 2-hydroxy-4-(2-morpholinopyrimidin-5-yl)cyclohepta-2,4,6-trien-1-one]	7.5-10	
0.01-0.5	Cc1c(F)cncc1-c1cccc(=O)c(O)c1 [Ex.46, 4-(5-fluoro-4-methylpyridin-3-yl)-2-hydroxycyclohepta-2,4,6-trien-1-one]	5-7.5	
0.01-0.5	O=c1c(O)ccccc1-c1ccncn1 [Ex.47, 2-hydroxy-7-(pyrimidin-4-yl)cyclohepta-2,4,6-trien-1-one]	0.1-5	
0.01-0.5	O=C(O)C(F)(F)F.O=c1cccc(-c2ccncn2)cc1O [Ex.48, 2-hydroxy-4-(pyrimidin-4-yl)cyclohepta-2,4,6-trien-1-one]	0.1-5	
0.01-0.5	O=c1ccc(-c2ccncn2)ccc1O [Ex.49, 2-hydroxy-5-(pyrimidin-4-yl)cyclohepta-2,4,6-trien-1-one]	0.1-5	
0.01-0.5	O=c1cccc(-c2ccncc2F)cc1O [Ex.50, 4-(3-fluoropyridin-4-yl)-2-hydroxycyclohepta-2,4,6-trien-1-one]	0.1-5	
0.01-0.5	O=c1ccc(-c2cnccc2F)ccc1O [Ex.51, 5-(4-fluoropyridin-3-yl)-2-hydroxycyclohepta-2,4,6-trien-1-one]	5-7.5	
0.01-0.5	O=c1cccc(-c2cnccc2F)cc1O [Ex.52, 4-(4-fluoropyridin-3-yl)-2-hydroxycyclohepta-2,4,6-trien-1-one]	0.1-5	
0.01-0.5	Cc1ncccc1-c1cccc(=O)c(O)c1 [Ex.53, 2-hydroxy-4-(2-methylpyridin-3-yl)cyclohepta-2,4,6-trien-1-one]	0.1-5	
0.01-0.5	COc1ncccc1-c1cccc(=O)c(O)c1 [Ex.54, 2-hydroxy-4-(2-methoxypyridin-3-yl)cyclohepta-2,4,6-trien-1-one]	10-25	
0.01-0.5	Cc1cc(-c2cccc(=O)c(O)c2)cnc1N [Ex.56, 4-(6-amino-5-methylpyridin-3-yl)-2-hydroxycyclohepta-2,4,6-trien-1-one]	0.1-5	
0.01-0.5	Cc1ncc(F)cc1-c1cccc(=O)c(O)c1 [Ex.58, 4-(5-fluoro-2-methylpyridin-3-yl)-2-hydroxycyclohepta-2,4,6-trien-1-one]	0.1-5	
0.01-0.5	Cc1ncc(-c2ccc(O)c(=O)cc2)cc1F [Ex.59, 5-(5-fluoro-6-methylpyridin-3-yl)-2-hydroxycyclohepta-2,4,6-trien-1-one]	5-7.5	
0.01-0.5	CC(C)c1ccc(O)c(=O)c(-c2cncc(F)c2)c1 [Ex.61, 2-(5-fluoropyridin-3-yl)-7-hydroxy-4-isopropylcyclohepta-2,4,6-trien-1-one]	7.5-10	
0.01-0.5	O=c1ccccc(-c2cccc(F)n2)c1O [Ex.69, 3-(6-fluoropyridin-2-yl)-2-hydroxycyclohepta-2,4,6-trien-1-one]		Liposome Fe transport Kefflux at 10 μM ([1]; Table 2): 10-25
0.01-0.5	O=c1ccccc(-c2cc(F)ccn2)c1O [Ex.70, 3-(4-fluoropyridin-2-yl)-2-hydroxycyclohepta-2,4,6-trien-1-one]		Liposome Fe transport Kefflux at 10 μM ([1]; Table 2): 10-25
0.5-1	O=c1ccccc(-c2cncs2)c1O [Ex.75, 2-hydroxy-3-(thiazol-5-yl)cyclohepta-2,4,6-trien-1-one]		Liposome Fe transport Kefflux at 10 μM ([1]; Table 2): 0.1-5
0.5-1	O=c1ccccc(-c2cscn2)c1O [Ex.76, 2-hydroxy-3-(thiazol-4-yl)cyclohepta-2,4,6-trien-1-one]		AUC(0-t) (Mouse 6-hour PK study): 500 to 1500 ng·h/mL; Cmax (Mouse 6-hour PK study): 1500 to 5000 ng/mL; half-life (Mouse 6-hour PK study): < 1.25 h; mouse 6-hour PK properties compared to hinokitiol (Mouse 6-hour PK study): one or more improved mouse 6-hour PK properties compared to hinokitiol
0.02-0.03	Cc1c(O)c(=O)ccn1C [deferiprone, reference compound]		Liposome Fe transport Kefflux at 10 μM ([1]; Table 1): 0
